Experimental findings from US11497819B2, “PSMA ligands for imaging and endoradiotherapy” (priority 2017, dated 2022) are described below.

Data set [1] relates to LNCaP cells. In words: Internalization into LNCaP cells, relative cellular uptake to ([^125I]I-BA)KuE. Type of data set: cell-based. The following applies: c = 1.0 nM ^177Lu-labeled inhibitor, 37° C., 60 min, corrected for non-specific binding (10 μM 2-PMPA), mean ± SD (n = 3).
The target in data set [2] is T1, HSA (Homo sapiens, UniProt P02768).
T1 construct: purchased Daicel Chemical Industries / Chiral Technologies Europe (Illkirch, France)
T1 sequence (P02768 25-609): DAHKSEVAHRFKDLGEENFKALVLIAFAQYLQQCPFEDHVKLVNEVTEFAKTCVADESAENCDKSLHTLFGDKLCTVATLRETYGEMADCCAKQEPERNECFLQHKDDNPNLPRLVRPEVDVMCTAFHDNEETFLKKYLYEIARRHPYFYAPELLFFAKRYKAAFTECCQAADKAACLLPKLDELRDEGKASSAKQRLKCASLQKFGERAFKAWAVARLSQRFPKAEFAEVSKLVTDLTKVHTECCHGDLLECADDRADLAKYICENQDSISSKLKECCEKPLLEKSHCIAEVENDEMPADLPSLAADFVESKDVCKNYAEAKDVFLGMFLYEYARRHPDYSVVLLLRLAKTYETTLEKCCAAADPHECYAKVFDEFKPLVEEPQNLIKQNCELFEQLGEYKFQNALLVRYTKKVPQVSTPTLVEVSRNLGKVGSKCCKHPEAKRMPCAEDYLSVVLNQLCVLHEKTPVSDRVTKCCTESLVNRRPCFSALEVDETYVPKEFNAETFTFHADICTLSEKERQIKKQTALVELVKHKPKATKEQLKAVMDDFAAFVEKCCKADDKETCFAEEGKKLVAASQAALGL
Nature of the data set: HSA binding on Chiralpak HSA column. Type of data set: in vitro ADME. The settings on record: after logarithmic plotting and calibration (n = 1). As for the experimental part:
HSA binding experiments were performed as previously described. […] For each run, 10 μL of the solution containing the inhibitor was injected into the RP-HPLC system and the retention time measured. […] Non-linear regression was established with OriginPro 2016G.

The test system of data set [3] is LNCaP-tumor. Also on record: species or system CB-17 SCID mice. The settings on record: male, CB-17 SCID, mouse, in vivo, 85 min. How it is done:
All animal experiments were carried out in accordance with the general animal welfare regulations in Germany (Deutsches Tierschutzgesetz, approval #55.2-1-54-2532-71-13). For the tumor model, LNCaP cells (approx. 10^7 cells) were suspended in serum-free DMEM-F12 medium and Matrigel (1/1; v/v) (BD Biosciences, Germany) and inoculated onto the right shoulder of male, 6 to 8 weeks old CB-17 SCID mice (Charles River Laboratories, Sulzfeld, Germany). Animals were used after the tumor size reached 4 to 8 mm in diameter for experiments.
Imaging experiments were conducted using a Siemens Inveon small animal PET and the data analyzed by the associated Inveon Research Workplace software. Mice were anaesthetized with isoflurane and approx. 4.0 to 17 MBq of the ^68Ga-labeled compounds were injected via tail vein (approx. 150 to 300 μL). Dynamic imaging was carried out after on-bed injection for 90 min. The static blockade image was obtained after 1 h p.i. with 15 min acquisition time. PSMA-blockade was achieved by coinjection of 8 mg/kg of 2-PMPA-solution (PBS). All images were reconstructed using an OSEM3D algorithm without […] and attenuation correction.

The target in data set [4] is T2, PSMA (Homo sapiens, UniProt Q04609).
T2 construct: host or cells: LNCaP cells
T2 sequence (Q04609 whole entry): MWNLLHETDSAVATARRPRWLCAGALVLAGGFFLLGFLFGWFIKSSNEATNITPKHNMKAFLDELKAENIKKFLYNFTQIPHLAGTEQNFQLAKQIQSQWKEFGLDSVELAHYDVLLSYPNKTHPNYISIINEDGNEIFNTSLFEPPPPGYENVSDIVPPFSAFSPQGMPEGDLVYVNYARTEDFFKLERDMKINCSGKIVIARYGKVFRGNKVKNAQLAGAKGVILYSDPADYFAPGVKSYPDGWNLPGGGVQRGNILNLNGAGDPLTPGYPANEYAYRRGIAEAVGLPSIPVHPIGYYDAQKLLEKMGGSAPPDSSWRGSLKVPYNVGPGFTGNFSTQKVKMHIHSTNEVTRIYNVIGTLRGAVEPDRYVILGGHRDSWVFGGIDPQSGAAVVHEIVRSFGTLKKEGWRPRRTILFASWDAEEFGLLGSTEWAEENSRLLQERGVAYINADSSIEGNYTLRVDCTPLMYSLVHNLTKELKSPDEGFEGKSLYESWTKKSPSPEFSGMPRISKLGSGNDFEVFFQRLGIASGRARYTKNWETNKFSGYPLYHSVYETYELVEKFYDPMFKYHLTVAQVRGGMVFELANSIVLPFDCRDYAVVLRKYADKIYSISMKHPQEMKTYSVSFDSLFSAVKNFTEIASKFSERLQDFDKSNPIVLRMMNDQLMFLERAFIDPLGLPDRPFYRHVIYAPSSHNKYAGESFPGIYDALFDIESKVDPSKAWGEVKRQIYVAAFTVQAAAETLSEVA
Nature of the data set: Competitive binding assay (IC50) on LNCaP cells with ([^125I]I-BA)KuE as radioligand. The following applies: LNCaP cells 1.5*10^5 cells/well, 1 h, 4° C., HBSS + 1% BSA, radioligand ([^125I]I-BA)KuE; mean ± SD (n = 3). As for the experimental part: One day (24 h±2 h) prior to all experiments with LNCaP cells, the cultivated cells were harvested using a mixture of trypsin/ethylendiaminetetraacetate (0.05%/0.02%) and PBS and centrifuged. After centrifugation, the supernatant was disposed and the cell pellet resuspended in culture medium. Afterwards, cells were counted with a hemocytometer (Neubauer) and seeded in 24-well plates.
After removal of the culture medium, the cells were treated once with HBSS (500 μL, Hank's balanced salt solution, Biochrom, Berlin, Germany, with addition of 1% BSA) and left 15 min on ice for equilibration in HBSS (200 μL, 1% BSA). […] All experiments were performed at least three times for each concentration. After 60 min incubation on ice, the experiment was terminated by removal of the medium and consecutive rinsing with HBSS (200 μL). The media of both steps were combined in one fraction and represent the amount of free radioligand. Afterwards, the cells were lysed with NaOH (250 μL, 1.0 m) and united with the HBSS (200 μL) of the following washing step. Quantification of bound and free radioligand was accomplished in a γ-counter.

Consider `O=C(O)CC[C@H](NC(=O)N[C@@H](CCCCNC(=O)CCCCC[C@H](NC(=O)c1ccc([N+](=O)[O-])cc1[N+](=O)[O-])C(=O)NCCCC[C@@H](NC(=O)[C@@H](Cc1ccccc1)NC(=O)[C@@H](Cc1ccc(O)c(I)c1)NC(=O)CCC(C(=O)O)N1CCN(CC(=O)O)CCN(CC(=O)O)CCN(CC(=O)O)CC1)C(=O)O)C(=O)O)C(=O)O` (stereo partly drawn) [PSMA-36, DOTAGA-y(3-I)fk(L-Asu[KuE]-2,4-DNBA)], for which, in data set [1], the Internalization is listed as 189.8 ± 37.5%. Besides, the “HSA (albumin binding)” value in data set [2] was 82.5%. Moreover, the “tumor uptake (PET)” value in data set [3] stood at 3.5 % ID/mL.
As to `O=C(O)CC[C@H](NC(=O)N[C@@H](CCCCNC(=O)[C@H](Cc1ccc2ccccc2c1)NC(=O)[C@H]1CC[C@H](CNC(=O)CN2CCN(CC(=O)O)CCN(CC(=O)O)CCN(CC(=O)O)CC2)CC1)C(=O)O)C(=O)O` [PSMA-617, reference compound], the IC50 in data set [4] stood at 3.8 ± 1.7 nM. In addition, in data set [1], the Internalization is on record as 160.1 ± 1.5%. For the same compound, the “HSA (albumin binding)” value in data set [2] is given as 74.7%.

Usually IC50 stands for the concentration needed to halve the response being measured.
